In PubChem BioAssay (NCI):
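Following 48 hours of exposure in 96-well plates, responses at five concentrations were used to interpolate endpoints linearly. TGI is the concentration that stops growth completely.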

What was measured:
Assay in all cases: NCI anticancer screen, dose series, 48 h
786-0 renal = system: 786-0 renal
A549 NSCLC = system: A549 NSCLC
ACHN renal = system: ACHN renal
CAKI-1 renal = system: CAKI-1 renal
CCRF-CEM leukemia = system: CCRF-CEM leukemia
COLO 205 colon = system: COLO 205 colon
DLD-1 colon = system: DLD-1 colon
DMS 114 small cell lung = system: DMS 114 small cell lung
DMS 273 small cell lung = system: DMS 273 small cell lung
EKVX NSCLC = system: EKVX NSCLC
HCC-2998 colon = system: HCC-2998 colon
HCT-15 colon = system: HCT-15 colon
HL-60(TB) leukemia = system: HL-60(TB) leukemia
HOP-18 NSCLC = system: HOP-18 NSCLC
HOP-62 NSCLC = system: HOP-62 NSCLC
HOP-92 NSCLC = system: HOP-92 NSCLC
HT29 colon = system: HT29 colon
K-562 leukemia = system: K-562 leukemia
KM12 colon = system: KM12 colon
KM20L2 colon = system: KM20L2 colon
LOX IMVI melanoma = system: LOX IMVI melanoma
LXFL 529 NSCLC = system: LXFL 529 NSCLC
M14 melanoma = system: M14 melanoma
MALME-3M melanoma = system: MALME-3M melanoma
MOLT-4 leukemia = system: MOLT-4 leukemia
NCI-H226 lung = system: NCI-H226 lung
NCI-H23 lung = system: NCI-H23 lung
NCI-H460 lung = system: NCI-H460 lung
NCI-H522 lung = system: NCI-H522 lung
OVCAR-3 ovarian = system: OVCAR-3 ovarian
OVCAR-4 ovarian = system: OVCAR-4 ovarian
OVCAR-5 ovarian = system: OVCAR-5 ovarian
OVCAR-8 ovarian = system: OVCAR-8 ovarian
RPMI-8226 leukemia = system: RPMI-8226 leukemia
RXF 393 renal = system: RXF 393 renal
SF-268 CNS = system: SF-268 CNS
SF-295 CNS = system: SF-295 CNS
SK-MEL-2 melanoma = system: SK-MEL-2 melanoma
SK-MEL-28 melanoma = system: SK-MEL-28 melanoma
SK-MEL-5 melanoma = system: SK-MEL-5 melanoma
SK-OV-3 ovarian = system: SK-OV-3 ovarian
SN12C renal = system: SN12C renal
SNB-19 CNS = system: SNB-19 CNS
SNB-75 CNS = system: SNB-75 CNS
SNB-78 CNS = system: SNB-78 CNS
SW-620 colon = system: SW-620 colon
TK-10 renal = system: TK-10 renal
U251 CNS = system: U251 CNS
UACC-257 melanoma = system: UACC-257 melanoma
UO-31 renal = system: UO-31 renal
XF 498 CNS = system: XF 498 CNS
HCT-116 colon = system: HCT-116 colon
IGROV1 ovarian = system: IGROV1 ovarian
SF-539 CNS = system: SF-539 CNS
SR leukemia = system: SR leukemia
UACC-62 melanoma = system: UACC-62 melanoma
A498 renal = system: A498 renal
DU-145 prostate = system: DU-145 prostate
HS 578T breast = system: HS 578T breast
M19-MEL melanoma = system: M19-MEL melanoma
MCF7 breast = system: MCF7 breast
MDA-MB-231 breast = system: MDA-MB-231 breast
MDA-MB-435 = system: MDA-MB-435
MDA-N = system: MDA-N
NCI/ADR-RES ovarian = system: NCI/ADR-RES ovarian
PC-3 prostate = system: PC-3 prostate
T-47D breast = system: T-47D breast

## O=C(CC1(O)C(=O)Nc2c(Cl)cc(Cl)cc21)c1ccco1 (stereo unspecified)
786-0 renal
  TGI: > 100 µM
A549 NSCLC
  TGI: > 100 µM
ACHN renal
  TGI: > 100 µM
CAKI-1 renal
  TGI: > 100 µM
CCRF-CEM leukemia
  TGI: 68.4 µM
COLO 205 colon
  TGI: > 100 µM
DLD-1 colon
  TGI: > 100 µM
DMS 114 small cell lung
  TGI: 60 µM
DMS 273 small cell lung
  TGI: > 100 µM
EKVX NSCLC
  TGI: > 100 µM
HCC-2998 colon
  TGI: > 100 µM
HCT-15 colon
  TGI: > 100 µM
HL-60(TB) leukemia
  TGI: 47.5 µM
HOP-18 NSCLC
  TGI: > 100 µM
HOP-62 NSCLC
  TGI: > 100 µM
HOP-92 NSCLC
  TGI: > 100 µM
HT29 colon
  TGI: > 100 µM
K-562 leukemia
  TGI: > 100 µM
KM12 colon
  TGI: > 100 µM
KM20L2 colon
  TGI: > 100 µM
LOX IMVI melanoma
  TGI: > 100 µM
LXFL 529 NSCLC
  TGI: > 100 µM
M14 melanoma
  TGI: > 100 µM
MALME-3M melanoma
  TGI: > 100 µM
MOLT-4 leukemia
  TGI: 59.1 µM
NCI-H226 lung
  TGI: 71.4 µM
NCI-H23 lung
  TGI: > 100 µM
NCI-H460 lung
  TGI: > 100 µM
NCI-H522 lung
  TGI: > 100 µM
OVCAR-3 ovarian
  TGI: 57 µM
OVCAR-4 ovarian
  TGI: 40.8 µM
OVCAR-5 ovarian
  TGI: > 100 µM
OVCAR-8 ovarian
  TGI: > 100 µM
RPMI-8226 leukemia
  TGI: 60.4 µM
RXF 393 renal
  TGI: > 100 µM
SF-268 CNS
  TGI: > 100 µM
SF-295 CNS
  TGI: > 100 µM
SK-MEL-2 melanoma
  TGI: > 100 µM
SK-MEL-28 melanoma
  TGI: > 100 µM
SK-MEL-5 melanoma
  TGI: > 100 µM
SK-OV-3 ovarian
  TGI: > 100 µM
SN12C renal
  TGI: > 100 µM
SNB-19 CNS
  TGI: > 100 µM
SNB-75 CNS
  TGI: > 100 µM
SNB-78 CNS
  TGI: 99.5 µM
SW-620 colon
  TGI: > 100 µM
TK-10 renal
  TGI: > 100 µM
U251 CNS
  TGI: > 100 µM
UACC-257 melanoma
  TGI: > 100 µM
UO-31 renal
  TGI: > 100 µM
XF 498 CNS
  TGI: 67.8 µM

## Cn1cc(NC(=O)[C@H]2CCC(N)=N2)cc1C(=O)NCCC(=N)N
786-0 renal
  TGI: > 100 µM
A549 NSCLC
  TGI: > 100 µM
ACHN renal
  TGI: > 100 µM
CCRF-CEM leukemia
  TGI: > 100 µM
COLO 205 colon
  TGI: > 100 µM
DLD-1 colon
  TGI: > 100 µM
DMS 114 small cell lung
  TGI: > 100 µM
DMS 273 small cell lung
  TGI: > 100 µM
EKVX NSCLC
  TGI: > 100 µM
HCC-2998 colon
  TGI: > 100 µM
HCT-116 colon
  TGI: > 100 µM
HL-60(TB) leukemia
  TGI: > 100 µM
HOP-18 NSCLC
  TGI: > 100 µM
HOP-62 NSCLC
  TGI: > 100 µM
HOP-92 NSCLC
  TGI: > 100 µM
HT29 colon
  TGI: > 100 µM
IGROV1 ovarian
  TGI: > 100 µM
K-562 leukemia
  TGI: > 100 µM
KM12 colon
  TGI: > 100 µM
KM20L2 colon
  TGI: > 100 µM
LOX IMVI melanoma
  TGI: > 100 µM
LXFL 529 NSCLC
  TGI: > 100 µM
M14 melanoma
  TGI: > 100 µM
MALME-3M melanoma
  TGI: > 100 µM
MOLT-4 leukemia
  TGI: > 100 µM
NCI-H226 lung
  TGI: > 100 µM
NCI-H23 lung
  TGI: > 100 µM
NCI-H460 lung
  TGI: > 100 µM
NCI-H522 lung
  TGI: > 100 µM
OVCAR-3 ovarian
  TGI: > 100 µM
OVCAR-8 ovarian
  TGI: > 100 µM
RPMI-8226 leukemia
  TGI: > 100 µM
RXF 393 renal
  TGI: > 100 µM
SF-268 CNS
  TGI: > 100 µM
SF-295 CNS
  TGI: > 100 µM
SF-539 CNS
  TGI: > 100 µM
SK-MEL-2 melanoma
  TGI: > 100 µM
SK-MEL-28 melanoma
  TGI: > 100 µM
SK-OV-3 ovarian
  TGI: > 100 µM
SN12C renal
  TGI: > 100 µM
SNB-19 CNS
  TGI: > 100 µM
SNB-75 CNS
  TGI: > 100 µM
SNB-78 CNS
  TGI: > 100 µM
SR leukemia
  TGI: > 100 µM
SW-620 colon
  TGI: > 100 µM
TK-10 renal
  TGI: > 100 µM
U251 CNS
  TGI: > 100 µM
UACC-257 melanoma
  TGI: > 100 µM
UACC-62 melanoma
  TGI: > 100 µM
UO-31 renal
  TGI: > 100 µM
XF 498 CNS
  TGI: > 100 µM

## O=Cc1cc2c(s1)C(=O)c1sccc1C2=O
786-0 renal
  TGI: 2.42 µM
A498 renal
  TGI: 2.66 µM
A549 NSCLC
  TGI: 1.56 µM
ACHN renal
  TGI: 1.77 µM
CAKI-1 renal
  TGI: 3.15 µM
COLO 205 colon
  TGI: 5.15 µM
DLD-1 colon
  TGI: 1.07 µM
DMS 114 small cell lung
  TGI: 0.372 µM
DMS 273 small cell lung
  TGI: 0.308 µM
DU-145 prostate
  TGI: 0.319 µM
EKVX NSCLC
  TGI: 3.18 µM
HCC-2998 colon
  TGI: 3.1 µM
HCT-116 colon
  TGI: 0.598 µM
HCT-15 colon
  TGI: 0.715 µM
HL-60(TB) leukemia
  TGI: 5.41 µM
HOP-18 NSCLC
  TGI: 0.322 µM
HOP-62 NSCLC
  TGI: 3.27 µM
HOP-92 NSCLC
  TGI: 2.82 µM
HS 578T breast
  TGI: 0.427 µM
HT29 colon
  TGI: 3.69 µM
IGROV1 ovarian
  TGI: 2.9 µM
K-562 leukemia
  TGI: > 17 µM
KM12 colon
  TGI: 7.88 µM
KM20L2 colon
  TGI: 4.16 µM
LOX IMVI melanoma
  TGI: 0.155 µM
LXFL 529 NSCLC
  TGI: 0.38 µM
M14 melanoma
  TGI: 0.146 µM
M19-MEL melanoma
  TGI: 0.0709 µM
MALME-3M melanoma
  TGI: 0.664 µM
MCF7 breast
  TGI: 1.33 µM
MDA-MB-231 breast
  TGI: 2.2 µM
MDA-MB-435
  TGI: 0.0334 µM
MDA-N
  TGI: 0.0932 µM
MOLT-4 leukemia
  TGI: 9.49 µM
NCI-H226 lung
  TGI: 3.53 µM
NCI-H23 lung
  TGI: 0.441 µM
NCI-H460 lung
  TGI: 2.69 µM
NCI-H522 lung
  TGI: 2.02 µM
NCI/ADR-RES ovarian
  TGI: 0.409 µM
OVCAR-3 ovarian
  TGI: 0.463 µM
OVCAR-4 ovarian
  TGI: 0.599 µM
OVCAR-5 ovarian
  TGI: 2 µM
OVCAR-8 ovarian
  TGI: 0.771 µM
PC-3 prostate
  TGI: 6.29 µM
RXF 393 renal
  TGI: 0.663 µM
SF-268 CNS
  TGI: 0.526 µM
SF-295 CNS
  TGI: 0.314 µM
SF-539 CNS
  TGI: 0.399 µM
SK-MEL-2 melanoma
  TGI: 0.37 µM
SK-MEL-28 melanoma
  TGI: 0.334 µM
SK-MEL-5 melanoma
  TGI: 0.255 µM
SK-OV-3 ovarian
  TGI: 5.48 µM
SN12C renal
  TGI: 0.688 µM
SNB-19 CNS
  TGI: 0.668 µM
SNB-75 CNS
  TGI: 0.338 µM
SR leukemia
  TGI: 5.45 µM
SW-620 colon
  TGI: 0.592 µM
T-47D breast
  TGI: 4.38 µM
TK-10 renal
  TGI: 4.14 µM
U251 CNS
  TGI: 0.748 µM
UACC-257 melanoma
  TGI: 0.657 µM
UACC-62 melanoma
  TGI: 0.532 µM
UO-31 renal
  TGI: 0.861 µM
XF 498 CNS
  TGI: 2.54 µM
